In ChEMBL document CHEMBL1201862, “PubChem BioAssay data set” (2004):
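48-hour exposure; five concentrations; linearly interpolated endpoints. The concentration for 50% growth inhibition is given as GI50.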 Activity calls are given as the source filed them. Cut-off read from the data, not from the text of the source: active = GI50 up to about 1.1 µM and inactive = higher.

Legend:
Assay in all cases: NCI anticancer screen, dose series, 48 h
DU-145 = tested on: DU-145
SK-MEL-2 = tested on: SK-MEL-2
UACC-62 = tested on: UACC-62
EKVX = tested on: EKVX
NCI-H460 = tested on: NCI-H460
PC-3 = tested on: PC-3
BT-549 = tested on: BT-549
SF-539 = tested on: SF-539
HL-60 = tested on: HL-60
786-0 = tested on: 786-0
OVCAR-5 = tested on: OVCAR-5
SK-MEL-28 = tested on: SK-MEL-28
CAKI-1 = tested on: CAKI-1
CCRF-CEM = tested on: CCRF-CEM
HOP-92 = tested on: HOP-92
RXF 393 = tested on: RXF 393
LOX IMVI = tested on: LOX IMVI
SF-268 = tested on: SF-268
HCC 2998 = tested on: HCC 2998
RPMI-8226 = tested on: RPMI-8226

Measured: GI50

COc1ccc(N2C(=O)CS(=O)(=O)C2c2cccc(Oc3ccccc3)c2)cc1 (stereo not drawn)
inactive: DU-145 6.65 µM | SK-MEL-2 3.56 µM | UACC-62 2.21 µM | EKVX 9.91 µM | NCI-H460 2.61 µM | PC-3 3.65 µM | BT-549 7.74 µM | SF-539 3.54 µM | HL-60 3.32 µM | 786-0 4.7 µM | OVCAR-5 7.73 µM | SK-MEL-28 16.2 µM | CAKI-1 2.72 µM | CCRF-CEM 5.25 µM | HOP-92 7.52 µM | RXF 393 4.04 µM | LOX IMVI 4.4 µM | SF-268 4.98 µM

C=CC(c1ccccc1)C1(O)c2cccc(O)c2C(=O)c2c(O)cccc21 (stereo not drawn)
inactive: HCC 2998 10.8 µM | DU-145 14.5 µM | SK-MEL-2 12.4 µM | EKVX 16.3 µM | NCI-H460 17.3 µM | PC-3 13.9 µM | BT-549 16.7 µM | SF-539 29.3 µM | RPMI-8226 18.5 µM | 786-0 17.4 µM | OVCAR-5 22.1 µM | SK-MEL-28 18.8 µM | CAKI-1 16.7 µM | HOP-92 15.9 µM | RXF 393 14.2 µM | LOX IMVI 16.4 µM | SF-268 17.3 µM

O=C(O)C1C(C(=O)O)C(C(=O)O)C1C(=O)O (stereo not drawn)
inactive: DU-145 > 100 µM | SK-MEL-2 > 100 µM | UACC-62 > 100 µM | EKVX > 100 µM | NCI-H460 > 100 µM | PC-3 > 100 µM | BT-549 > 100 µM | SF-539 > 100 µM | RPMI-8226 > 100 µM | 786-0 > 100 µM | OVCAR-5 > 100 µM | SK-MEL-28 > 100 µM | CAKI-1 > 100 µM | CCRF-CEM > 100 µM | HOP-92 > 100 µM | RXF 393 > 100 µM | LOX IMVI > 100 µM | SF-268 > 100 µM

Cn1ccnc1CC(C)(O)c1ccccc1 (stereo not drawn)
inactive: HCC 2998 > 100 µM | DU-145 > 100 µM | SK-MEL-2 > 100 µM | UACC-62 > 100 µM | EKVX > 100 µM | NCI-H460 > 100 µM | PC-3 > 100 µM | BT-549 > 100 µM | SF-539 > 100 µM | RPMI-8226 > 100 µM | 786-0 > 100 µM | OVCAR-5 > 100 µM | SK-MEL-28 > 100 µM | CAKI-1 > 100 µM | HOP-92 > 100 µM | RXF 393 > 100 µM | LOX IMVI > 100 µM | SF-268 > 100 µM

N=C(N)NS(=O)(=O)c1ccc(/N=N/c2c(O)c(C(=O)O)cc3ccccc23)cc1
inactive: HCC 2998 > 100 µM | DU-145 > 100 µM | SK-MEL-2 > 100 µM | UACC-62 > 100 µM | EKVX > 100 µM | NCI-H460 > 100 µM | PC-3 > 100 µM | BT-549 > 100 µM | SF-539 > 100 µM | HL-60 > 100 µM | RPMI-8226 > 100 µM | 786-0 > 100 µM | OVCAR-5 > 100 µM | SK-MEL-28 > 100 µM | CAKI-1 > 100 µM | CCRF-CEM > 100 µM | HOP-92 > 100 µM | RXF 393 > 100 µM | SF-268 > 100 µM

CSc1nc(SC)c2c(C)cn(Cc3ccccc3)c2n1
inactive: HCC 2998 44.1 µM | DU-145 > 100 µM | SK-MEL-2 > 100 µM | UACC-62 > 100 µM | EKVX > 100 µM | NCI-H460 80.2 µM | PC-3 > 100 µM | BT-549 > 100 µM | SF-539 93.1 µM | HL-60 34 µM | RPMI-8226 85.9 µM | 786-0 > 100 µM | OVCAR-5 > 100 µM | SK-MEL-28 > 100 µM | CAKI-1 > 100 µM | CCRF-CEM 51.4 µM | HOP-92 20.6 µM | LOX IMVI 60.4 µM | SF-268 > 100 µM

CCC(CCN)(CCN)[N+](=O)[O-]
inactive: DU-145 > 100 µM | SK-MEL-2 > 100 µM | UACC-62 > 100 µM | EKVX > 100 µM | NCI-H460 > 100 µM | PC-3 > 100 µM | BT-549 > 100 µM | SF-539 > 100 µM | HL-60 > 100 µM | RPMI-8226 > 100 µM | 786-0 > 100 µM | OVCAR-5 > 100 µM | CAKI-1 > 100 µM | HOP-92 > 100 µM | RXF 393 > 100 µM | SF-268 > 100 µM

C=CCN(c1cc(OCc2ccccc2)c2c(c(C)cn2S(=O)(=O)c2ccc([N+](=O)[O-])cc2)c1[N+](=O)[O-])S(C)(=O)=O
inactive: HCC 2998 > 100 µM | DU-145 > 100 µM | SK-MEL-2 > 100 µM | UACC-62 > 100 µM | EKVX > 100 µM | NCI-H460 > 100 µM | PC-3 > 100 µM | BT-549 > 100 µM | SF-539 > 100 µM | RPMI-8226 > 100 µM | 786-0 > 100 µM | OVCAR-5 > 100 µM | SK-MEL-28 > 100 µM | CAKI-1 > 100 µM | HOP-92 > 100 µM | RXF 393 > 100 µM | LOX IMVI > 100 µM | SF-268 > 100 µM

O=C1C[C@@H](c2ccccc2)O[C@@H](c2ccccc2)C1
inactive: HCC 2998 > 100 µM | DU-145 > 100 µM | SK-MEL-2 > 100 µM | UACC-62 > 100 µM | EKVX > 100 µM | NCI-H460 > 100 µM | PC-3 > 100 µM | BT-549 > 100 µM | SF-539 > 100 µM | RPMI-8226 > 100 µM | 786-0 > 100 µM | OVCAR-5 > 100 µM | CAKI-1 > 100 µM | CCRF-CEM > 100 µM | HOP-92 > 100 µM | RXF 393 > 100 µM | LOX IMVI > 100 µM | SF-268 > 100 µM

O=C(CN1CCN(c2ccccn2)CC1)N1CCCn2c1nc1ccccc1c2=O
inactive: HCC 2998 > 100 µM | DU-145 > 100 µM | SK-MEL-2 > 100 µM | UACC-62 > 100 µM | EKVX > 100 µM | NCI-H460 > 100 µM | PC-3 > 100 µM | BT-549 > 100 µM | SF-539 > 100 µM | HL-60 > 100 µM | RPMI-8226 > 100 µM | 786-0 > 100 µM | OVCAR-5 > 100 µM | CAKI-1 > 100 µM | CCRF-CEM > 100 µM | HOP-92 > 100 µM | LOX IMVI > 100 µM | SF-268 > 100 µM

COC(OC)C1OCC(n2cc(F)c(=O)[nH]c2=O)C1O (stereo not drawn)
inactive: HCC 2998 > 100 µM | DU-145 > 100 µM | SK-MEL-2 > 100 µM | UACC-62 > 100 µM | EKVX > 100 µM | NCI-H460 > 100 µM | PC-3 > 100 µM | BT-549 > 100 µM | SF-539 > 100 µM | RPMI-8226 > 100 µM | 786-0 > 100 µM | OVCAR-5 > 100 µM | SK-MEL-28 > 100 µM | CAKI-1 > 100 µM | CCRF-CEM > 100 µM | HOP-92 > 100 µM | RXF 393 42.9 µM | LOX IMVI > 100 µM | SF-268 > 100 µM
